Assay results reported in patent US8580268B2, “CpG oligonucleotide analogs containing hydrophobic T analogs with enhanced immunostimulatory activity” (Coley Pharmaceutical GmbH, priority 2006, dated 2013).
Entries after “also recorded” stand apart in the source; their conditions may differ. Strand notation (5' to 3'): a small letter for the sugar, then the base; units joined by * are phosphorothioate-linked, units joined directly phosphodiester-linked; [ ] holds rarer units or linkages, { } end groups; capitals alone tell only the bases. [5IU] = 5-iodo-2'-deoxyuridine (publication's JU); d = 2'-deoxy (DNA)

Assays:
BALB/c mice [1] = experiment: In vivo plasma cytokine production after SC injection (ELISA); set-up: species or system mouse
Protocol: (§1) Female BALB/c mice (6-8 weeks of age) were purchased from Charles River Canada (Quebec, Canada) and housed in micro-isolators in the Animal Care Facility at Coley Pharmaceutical Group Canada. All studies were conducted in accordance with the Animal Care Committee of Coley Canada under the guidance of the Canadian Council on Animal Care. All animals were naïve to CpG ODNs.
To measure the effect of modified ODN in vivo, BALB/c mice (5 per group) were injected subcutaneously (SC) with 10, 50 or 100 μg of SEQ ID NO:13 or 100 μg of SEQ ID NO:37 in a total volume of 100 μl SC. Control group received 100 μl of PBS alone. Animals were bled by cardiac puncture at 1 hour post injection (TNF-alpha) or 3 hours post injection (IP-10). Plasma samples were assayed ELISA for TNF-alpha (FIG. 15a) and IP-10 (FIG. 15b).

human TLR9 = molecular target: T1, human TLR9 (Homo sapiens, UniProt Q9NR96); experiment: TLR9 luciferase assay (NF-κB reporter) in hTLR9-LUC-293 cells; format: cell-based; conditions: 16 h, stated in words relative to the comparator ODN
T1 construct: expressed in transfected cells
T1 sequence (Q9NR96 26-1032): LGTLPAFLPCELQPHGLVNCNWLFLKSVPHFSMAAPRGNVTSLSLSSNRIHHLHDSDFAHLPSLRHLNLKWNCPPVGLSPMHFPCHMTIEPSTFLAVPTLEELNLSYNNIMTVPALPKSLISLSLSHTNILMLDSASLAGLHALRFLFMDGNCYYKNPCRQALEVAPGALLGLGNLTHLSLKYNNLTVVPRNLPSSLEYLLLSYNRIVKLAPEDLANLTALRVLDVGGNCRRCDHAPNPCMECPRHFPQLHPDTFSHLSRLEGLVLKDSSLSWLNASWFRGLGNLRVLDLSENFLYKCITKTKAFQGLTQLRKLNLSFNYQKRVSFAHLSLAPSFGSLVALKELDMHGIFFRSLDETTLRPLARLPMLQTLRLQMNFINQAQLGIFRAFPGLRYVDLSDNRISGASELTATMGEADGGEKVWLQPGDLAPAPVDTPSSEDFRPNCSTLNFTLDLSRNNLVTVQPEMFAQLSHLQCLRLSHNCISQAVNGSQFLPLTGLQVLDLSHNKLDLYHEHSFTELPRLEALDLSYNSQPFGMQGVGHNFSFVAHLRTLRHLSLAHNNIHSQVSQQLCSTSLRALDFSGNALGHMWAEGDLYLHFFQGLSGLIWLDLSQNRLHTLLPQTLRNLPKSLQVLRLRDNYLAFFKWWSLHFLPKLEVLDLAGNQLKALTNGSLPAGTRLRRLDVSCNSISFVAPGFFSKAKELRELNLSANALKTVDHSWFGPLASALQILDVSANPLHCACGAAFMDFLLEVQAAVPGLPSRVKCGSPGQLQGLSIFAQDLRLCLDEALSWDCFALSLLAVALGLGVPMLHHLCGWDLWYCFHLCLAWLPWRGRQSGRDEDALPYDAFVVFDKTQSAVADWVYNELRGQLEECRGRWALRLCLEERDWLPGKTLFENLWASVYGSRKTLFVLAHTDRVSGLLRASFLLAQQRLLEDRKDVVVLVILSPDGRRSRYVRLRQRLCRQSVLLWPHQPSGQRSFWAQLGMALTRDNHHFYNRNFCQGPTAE
Protocol: HEK293 cells were transfected by electroporation with vectors expressing the respective human TLR and a 6xNF-κB-luciferase reporter plasmid. Stable transfectants (3×10^4 cells/well) were incubated indicated amounts of ODN for 16 h at 37° C. in a humidified incubator. Each data point was done in triplicate. Cells were lysed and assayed for luciferase gene activity (using the BriteLite kit from Perkin-Elmer, Zaventem, Belgium). Stimulation indices were calculated in reference to reporter gene activity of medium without addition of ODN.

BALB/c mouse splenocytes [2] = experiment: Cytokine ELISA of mouse splenocyte culture supernatants; format: cell-based; conditions: BALB/c splenocyte supernatants at 6 hour (TNF-alpha) or 24 hours (IL-6, IL-10, IL-12)
Text: Naïve BALB/c mouse splenocytes (from pools of 3-5 animals) were used for in vitro assays. Animals were anaesthetized with isoflurane and euthanized by cervical dislocation. Spleens were removed under aseptic conditions and placed in PBS+0.2% bovine serum albumin (Sigma Chemical Company). Spleens were then homogenized and splenocytes were re-suspended in RPMI 1640 (Life Technologies, Grand Island, N.Y.) tissue culture medium supplemented with 2% normal mouse serum (Cedarlane Laboratories, Ontario, Canada), penicillin-streptomycin solution (final concentration of 1000 U/ml and 1 mg/ml respectively; Sigma Chemical Company), and 5×10−5 M b-mercaptoethanol (Sigma Chemical Company).
In order to determine the efficacy of the modified ODN of the invention […], ODN with lipophilic T analogs were tested in isolated mouse splenocytes. BALB/c mouse splenocytes were isolated and incubated with modified B class (SEQ ID NO:13), unmodified B class (SEQ ID NO:37), and a non-CpG ODN (SEQ ID NO:26) (Table 5). Culture supernatants were collected at 6 hour (TNF-alpha) or 24 hours (IL-6, IL-10, IL-12) and cytokine concentration was measured by ELISA.

BALB/c mouse splenocytes [3] = experiment: B cell proliferation in CFSE-stained mouse splenocytes (FACS); format: cell-based; conditions: 0.001-10 μg/ml ODN, 72 hours, CD19 FACS
Protocol: Caboxy-florescein diacetate, succimidyl ester (CFSE) (Invitrogen, Eugene, Oreg., USA) stained BALB/c mouse splenocytes (4×10^5/well) were incubated with different concentrations of ODN in a humidified 5% CO2 incubator at 37° C. for […]. Cells were then stained with PE conjugated anti-CD19 antibody (BD Pharmingen, San Diego, Calif., USA) for CD19 and B-cell proliferation was determined by FACS followed by analysis by ModFit Software V3.0 (Verity Software House Inc., Topsham, Me., USA).
ODN were then tested their ability to induce B cell proliferation in splenocytes. CFSE-stained BALB/c mouse splenocytes (4×10^5/well) were incubated with 0.001, 0.01, 0.1, 0.3, 1, 3 or 10 μg/ml of the indicated ODN (FIG. 14). At 72 hours post-incubation, cells were stained for cell surface marker CD19 and B-cell proliferation was determined by FACS followed by analysis by ModFit Software. […] The increase was most pronounced even at lower ODN concentration.

PBMC = experiment: B-cell proliferation in CFSE-labeled human PBMC; format: cell-based; conditions: CFSE-labeled PBMC from three donors, 5 days, CD19 staining
Protocol: Next the activity of modified P-class class ODN (SEQ ID NO:58, 60-62, FIG. 29a) (SEQ ID NO:64 and 67, FIG. 29b) was compared to that of an unmodified B-class ODN (SEQ ID NO:55), an unmodified C-class ODN (SEQ ID NO:54), a negative control ODN (SEQ ID NO:53), an unmodified P-class ODN (SEQ ID NO:56), LPS, R-848, SEB, and a poly[I]:[C] ODN. CFSE-labeled PBMC from three donors were incubated with the ODN for 5 days and then stained with a CD19 antibody. The percentage of B cells with reduced CFSE staining was determined.

BALB/c mice [4] = experiment: In vivo murine IFN-alpha induction after SC injection (ELISA); set-up: species or system mouse; conditions: bled at 3 hr post injection
Protocol: as §1
In order to determine the effect of the modified P-class ODN in vivo, BALB/c mice (5 per group) were injected SC with differing doses of ODN. Animals were bled at 3 hr post injection and plasma tested for IFN-alpha by ELISA. The activity of modified P-class ODN (SEQ ID NO:58, 60-62, 64, and 67) was compared to that of a B-class negative control (SEQ ID NO:55) and a negative control (SEQ ID NO:26).

Row | Substance | plasma TNF-alpha production (BALB/c mice [1]; 1 hour post injection) | plasma IP-10 production (BALB/c mice [1]; 3 hours post injection) | TLR9 stimulation (NF-κB luciferase activity, relative stimulation index) (human TLR9) | cytokine concentration (TNF-alpha, IL-6, IL-10, IL-12) (BALB/c mouse splenocytes [2]) | B-cell proliferation (BALB/c mouse splenocytes [3]) | percentage of B cells with reduced CFSE staining (PBMC) | plasma IFN-alpha induction (BALB/c mice [4])
1 | T*G*JU*C-G*T*T*T*T*T*T*T*T*T*T*T*T*T*T*T (DNA dT*dG*d[5IU]*dCdG*dT*dT*dT*dT*dT*dT*dT*dT*dT*dT*dT*dT*dT*dT*dT) [SEQ ID NO:13] | higher | higher | greater stimulation of TLR9 activity over control; also recorded: more active in the assay than the parent ODN | dramatically increased levels of all cytokines tested | marked increase in B-cell proliferation | – | –
2 | T*C*G*T*C*G*T*T*T*T*G*T*C*G*T*T*T*T*G*T*C*G*T*T [SEQ ID NO:55, reference compound] | – | – | – | – | – | highest percentage of B cells after division | did not induce much murine IFN-alpha
